Publication PMC4575030 (PLoS ONE, 2015)

Assays:
[1] = test system: Aδ-fiber nociceptors; experiment: In vivo teased-fiber recording from tibial nerve after CFA, Aδ-fibers; set-up: species or system rat; conditions: i.v. 2.5 mg
Procedure: A total of 55 adult, male, Sprague–Dawley rats (Harlan, Indianapolis, IN) weighing 300–350 g were used for electrophysiology. To ensure that electrophysiology studies were performed on rats with mechanical hyperalgesia, behavioral measures of mechanical hyperalgesia were obtained before and at 24 h after administration of CFA (and just prior to the electrophysiological studies). Mechanical hyperalgesia was assessed by determining the frequency of paw withdrawal evoked by mechanical stimulation using a 26 g Semmes-Weinstein von Frey monofilament (Stoelting, Wood Dale, IL). Rats were placed on an elevated wire mesh platform under individual plastic cages and acclimated to the testing environment for 30 minutes prior to testing. The monofilament was applied to the mid-plantar surface of the hindpaw ten times for 1–2 s each with an inter-stimulus interval of approximately 5–10 s and the paw withdrawal frequency (percent) was determined. Baseline measures were determined for each rat for three consecutive days prior to injection of CFA. […]
Recordings were made from cutaneous afferent fibers of the left tibial nerve using a teased-fiber approach. […] Teased fibers were placed onto a tungsten wire electrode and action potentials were recorded extracellularly. […] Responses of individual fibers were analyzed off-line using the Spike2 data analysis program (Cambridge Electronic Design, Cambridge, UK). […]

[2] = test system: rat spinal nerve ligation model; experiment: Tactile allodynia following spinal nerve ligation (SNL); type: in vivo; conditions: 30 mg/kg, 120 min after dosing, day 21 after SNL; not statistically significant (p = 0.99)
Source text: A decrease in tactile response threshold, using calibrated von Frey filaments (Stoelting Co., Wood Dale, IL), was used as a measure of tactile allodynia following spinal nerve ligation (SNL). Prior to surgery, each animal underwent baseline testing to determine suitability for the assay. Briefly, animals were placed on a raised platform with a grid meshed floor. The distance between the mesh was ¼”. Once acclimated, each animal received a series of trials according to the up-down method described by Dixon. Animals showing a response to less than 4 g were deemed already sensitive to the stimulus and were removed. A maximal fiber of 15 g was employed as a cut-off threshold. Surgery was then performed with a procedure slightly modified by that reported by Kim and Chung. Briefly, the left L5 spinal nerve was carefully isolated from the surrounding tissue. Using 5–0 silk suture, a tight ligature was placed around L5 nerve. Muscle and skin were then closed using 4–0 absorbable suture and wound clips. Animals were allowed to recover and were carefully monitored for seven days to ensure proper healing and ensure there was no mutilation of the affected limb. On day 21 post-surgery, animals were again tested to ensure the development of tactile allodynia. […] Animals were then randomized into groups and dosed with the test compound, gabapentin, or vehicle and assessed as stated above. […]

[3] = test system: Nav1.7; set-up: method as in PMID 21634377; conditions: extrapolated; cited from earlier work
[4] = test system: C-fiber nociceptors; experiment: In vivo teased-fiber recording from tibial nerve after CFA, C-fibers; set-up: species or system rat; conditions: for Heat response threshold of C-fiber nociceptors: n = 9
Procedure: A total of 55 adult, male, Sprague–Dawley rats (Harlan, Indianapolis, IN) weighing 300–350 g were used for electrophysiology. To ensure that electrophysiology studies were performed on rats with mechanical hyperalgesia, behavioral measures of mechanical hyperalgesia were obtained before and at 24 h after administration of CFA (and just prior to the electrophysiological studies). Mechanical hyperalgesia was assessed by determining the frequency of paw withdrawal evoked by mechanical stimulation using a 26 g Semmes-Weinstein von Frey monofilament (Stoelting, Wood Dale, IL). Rats were placed on an elevated wire mesh platform under individual plastic cages and acclimated to the testing environment for 30 minutes prior to testing. The monofilament was applied to the mid-plantar surface of the hindpaw ten times for 1–2 s each with an inter-stimulus interval of approximately 5–10 s and the paw withdrawal frequency (percent) was determined. Baseline measures were determined for each rat for three consecutive days prior to injection of CFA. Mechanical hyperalgesia was defined as an increase in the paw withdrawal frequency.
Rats were initially anesthetized by intramuscular injection of ketamine (100 mg/kg) and xylazine ([…]). […] Core body temperature was maintained at 37°C using a feedback-controlled heating pad (Harvard Apparatus, Holliston, MA, USA).
Recordings were made from cutaneous afferent fibers of the left tibial nerve using a teased-fiber approach. The tibial nerve was dissected from the surrounding tissue and the overlaying skin was sewn to a metal ring to form a pool that was filled with warm mineral oil. The tibial nerve was placed onto a mirror platform for fine dissection with sharpened fine forceps (Fine Science Tools, Foster City, CA, USA). Teased fibers were placed onto a tungsten wire electrode and action potentials were recorded extracellularly. […] Only fibers with clearly discriminated single action potentials were studied. Responses of individual fibers were analyzed off-line using the Spike2 data analysis program (Cambridge Electronic Design, Cambridge, UK).
Afferent fibers were found by their ongoing spontaneous activity and by mechanically stimulating the plantar surface of the hind paw with the experimenter's finger or von Frey monofilaments. Once a single fiber was identified that was excited by mild pinching but not light touch, its mechanical receptive field was marked on the skin using a felt-tipped pen.
Conduction velocity was determined by electrically stimulating the skin outside the fiber’s receptive field with pin electrodes (200 μs pulse width at 0.5 Hz) to electrically activate the fiber. The fiber was stimulated at 1.5 times its electrical threshold and the conduction latency was measured from the time of the electrical stimulus artifact to the evoked action potential. Conduction distance was determined by measuring the distance from the fiber's receptive field to the recording electrode. Conduction velocity (m/s) was calculated by dividing conduction distance by conduction latency. Fibers were classified as Aδ-fiber nociceptors if they had conduction velocities between 2.4–25.0 m/s and as C-fiber nociceptors if conduction velocity was < 2.4 m/s.
Nociceptors were classified functionally according to their responsiveness to mechanical and heat stimulation. Mechanical stimuli used to classify units included light brushing with the tip of a cotton swab, mildly pinching with a pair of forceps, and application of von Frey filaments. Mechanical response thresholds were determined using a series of von Frey monofilaments and defined as the weight (g) required to evoke at least one action potential when applied to the receptive field for 1–2 s. Heat stimuli were delivered using a feedback-controlled Peltier device (Yale Electronics, New Haven, CT) with a contact area of 1 cm^2. […]

[5] = test system: rat CFA model of pain; experiment: CFA-induced thermal hyperalgesia; type: in vivo; conditions: 120 min after dosing, 24 h after CFA
Procedure: CFA-induced thermal hyperalgesia was measured using the Thermal Plantar Analgesia Instrument (Ugo Basile, Italy). Intensity of the radiant heat stimulus was adjusted to achieve a withdrawal latency of approximately 13 s in naïve animals. On test day one, animals were placed on the apparatus in their individual testing chambers with an absorbent towel at the bottom and allowed to habituate for at least 30 minutes. The towel was then removed and animals were allowed to acclimate for at least 15 minutes more. After habituation, animals were placed back in their home cages until the following day. On test day two, animals were placed back in the testing chambers until calm (typically 20 minutes). The thermal device was positioned on the center of the left hind paw and the test was started. The time for the animal to withdraw its paw from the thermal stimulus was recorded. A cut-off of 30 seconds was used to prevent tissue damage. Few trials went past 20 seconds and none past 25 seconds. This procedure was repeated for three trials per animal, each separated by at least 5 min, and trials were averaged to determine baseline withdrawal latencies. After determining baseline measures, each animal received an injection of 50 μl CFA (1:1 emulsion with PBS, Sigma, St. Louis, MO) into the plantar side of the left hind paw with a 26 gauge needle. Animals were then placed back in their home cages until the following day. Approximately 24 h after the CFA injection, withdrawal latencies to heat were determined as described above. Animals were then randomized based on their Post-CFA baseline score and treated with the test compound or vehicle. […] The experimenter was blinded to drug treatment during this assay. Percent return to baseline latency was used as the endpoint of the assay.

[6] = 30 minutes after i.v. injection
[7] = 60 minutes after i.v. injection

With `CC(=O)Nc1cccc(Nc2ncnc(N3CCC(OCc4ccc(OC(F)(F)F)cc4)CC3)n2)c1C` [Compound 52, N-(2-methyl-3-((4-(4-((4-(trifluoromethoxy)benzyl)oxy)-1-piperidinyl)-1,3,5-triazin-2-yl)amino)phenyl)acetamide] the “Mechanical response thresholds of Aδ-fiber nociceptors” value [1] was “Neither vehicle nor compound 52 altered”, the “Rate of ongoing spontaneous activity of Aδ-fiber nociceptors” value [1] was “did not reduce the rate of ongoing spontaneous activity” and the “Reversal of tactile allodynia compared to the vehicle group” value [2] was 15%. The “Preference for inactivated versus non-inactivated Nav1.7” value [3] was 100 fold, the “Mean cumulative number of action potentials evoked by all heat stimuli, C-fibers” value [4, 6] was 19.2 ± 3.6 and the “Mean number of action potentials evoked by a suprathreshold mechanical stimulus (250 mN), C-fibers” value (“Mean number of action potentials evoked” below) [4, 6] was 19.9 ± 5.4. For the same molecule, the “Mechanical response threshold of C-fiber nociceptors” value [4, 6] was 60.4 ± 9.8 mN, the “Heat response threshold of C-fiber nociceptors” value [4, 6] was 47.0 °C and the “Number of action potentials evoked by heat stimuli, C-fibers” value ([4]; 30 minutes after i.v. injection, 48°C and 50°C reduced) was “reduced the number of action potentials evoked by heat stimuli”. The “Mean number of action potentials evoked” value [4, 7] was 11.6 ± 3.2, the “Mechanical response threshold of C-fiber nociceptors” value [4, 7] was 60.1 ±9.1 mN and the “Mean cumulative number of action potentials evoked by all heat stimuli, C-fibers” value ([4]; before injection) was 39.2 ± 6.5. For the same molecule, the “Mean number of action potentials evoked” value ([4]; before injection, n = 8) was 28.9 ± 6.2, the “Heat response threshold of C-fiber nociceptors” value ([4]; before injection) was 45.0 °C and the “Mechanical response threshold of C-fiber nociceptors” value ([4]; before injection, n = 11) was 44.5 ± 7.5 mN. The “Time after beginning the injection at which the rate of ongoing spontaneous activity was significantly decreased” value ([4]; i.v. 2.5 mg over 15 min, remained decreased until 26 minutes) was no more than 12 min, the “Spontaneous firing of C-fiber nociceptors, after compound” value ([4]; one day after CFA, after i.v. 2.5 mg (approximately 8 mg/kg)) was roughly 0.2 Hz and the “Spontaneous firing of C-fiber nociceptors, before compound” value ([4]; one day after CFA, before i.v. injection) was “approximately 0.7 Hz”. The “Average reversal of thermal hyperalgesia compared to baseline” value ([5]; 10 mg/kg p.o.) was 40% and the “Average reversal of thermal hyperalgesia compared to baseline” value ([5]; 30 mg/kg p.o.) was 53%.
